SMILES strings stand for the structures.

The data set in a line: In vitro skin permeation, Franz-type diffusion cells, with light device irradiation. Type of data set: in vitro ADME, pig. Particulars: Fucicort cream 4 mg/cm^2 on SC, p<0.005.

Method: Full Thickness skin is removed from the back of pig ears. The subcutaneous tissue is removed and the skin is mounted in open two-chamber Franz-type diffusion cells (diffusion area: 3.14 cm^−2; recipient volume: 10 ml). Temperature is kept at 32° C. at the skin surface. Recipient phase is a 0.05 M isotonic acetate buffer, pH 4.5, and 2-propanol (80:20%, vol/vol). The experiments are carried out under sink condition.
The test formulation (4 mg/cm^2) is applied to the stratum corneum (SC) side of the skin. The treatment is reapplied at 3, 21, 27, 45, and 51 h, which simulates the actual dosage regimen in patients. At appropriate times (3, 21, 27, 45, 51, and 70 h) a specific amount of recipient phase is withdrawn and replaced by thermostated fluid. Samples are kept at 4° C. for a maximum of 2 days until high-performance liquid chromatography (HPLC) analysis. All permeation experiments are carried out in 6 replicates.
The same experiment as described above is carried out.
The same experiment as described above is carried out. Again, the skin is irradiated for 2 h after each application of the cream, but with the devices Dev4-6 of Example 4 in three separate runs, one run for each device. The devices are positioned directly above the SC. If the cream is applied or reapplied the light emitting device is repositioned on the SC 5 minutes afterwards. After having the skin irradiated for 1 h, the irradiation source is removed from the skin. Again samples of the recipient are taken and analyzed by HPLC in time intervals given above.

With `C[C@H]1C[C@H]2[C@@H]3CCC4=CC(=O)C=C[C@]4(C)[C@@]3(F)[C@@H](O)C[C@]2(C)[C@@]1(O)C(=O)CO` [betamethasone], the “permeation enhanced as compared to the control experiment” value runs as follows: (skin irradiated for 30 min with IR device Dev5, positioned 5 minutes after application) 20%; (skin irradiated for 2 h after each application with IR devices Dev4-6, one run each, all three devices) “more than 27%”; (skin irradiated for 2 h after each application with device Dev1 (red OLED), recipient samples by HPLC) 14%.

The values above are taken from patent US9597527B2, “Enhancement of penetration and action” (Merck Patent GmbH, priority 2010, dated 2017).
